In brackets after ≈: the same amount, converted by molar mass.
Assays:
Assay type in all cases: cell-based
[1] = tested on: P. aeruginosa ATCC 27853; assay: MIC by broth microdilution, BLI alone; details: Pseudomonas aeruginosa, ATCC27853, read-out: Minimal Inhibitory Concentrations (MIC) of selected BLIs
Description: (§1) MICs were determined by the broth microdilution method in accordance with Clinical and Laboratories Institute (CLSI) guidelines. In brief, fresh overnight bacterial cultures were suspended in sterile saline, and adjusted to a 0.5 McFarland turbidity standard. Bacterial suspensions were then diluted in cation adjusted Mueller-Hinton Broth (MHB II; BBL) to yield a final inoculum of approximately 5×10^5 colony-forming units (CFU)/mL. A master plate of antibiotics was prepared at a concentration equivalent to hundred-fold the highest desired final concentration in 100% dimethyl sulfoxide (DMSO). The master antibiotic plate was then diluted by serial twofold dilution with a multichannel pipette. The resulting dilution series of compounds were diluted 1:10 with sterile water or a solution of beta-lactamase inhibitor prepared at a concentration equivalent to eleven-fold the desired final concentration in deionized water leading to a 10% DMSO final concentration. A volume of 10 μL of the drug dilution series was transferred to 96-well assay plates. Assay plates were inoculated with 90 μL of bacterial suspensions and incubated at 35° C. for 20 hrs. The assay plates were read using a microtiter plate reader (Molecular Devices) at 600 nm as well as by visual observation with a reading mirror. The lowest concentration of the compound that prevented visible growth was recorded as the MIC. Performance of the assay was monitored by testing aztreonam against laboratory quality control strains in accordance with guidelines of the CLSI.

[2] = tested on: E. coli ATCC 25922; assay: MIC by broth microdilution, BLI alone; details: Escherichia coli, ATCC25922, read-out: Minimal Inhibitory Concentrations (MIC) of selected BLIs
Description: as §1

[3] = tested on: K. pneumoniae ATCC 43816; assay: MIC by broth microdilution, BLI alone; details: Klebsiella pneumoniae, ATCC43816, read-out: Minimal Inhibitory Concentrations (MIC) of selected BLIs
Description: as §1

[4] = tested on: E. coli (SHV-12); assay: microbe, parasite or virus in culture; details: for MIC of aztreonam with beta-lactamase inhibitor: AZ + BLI at 2 μg/mL; for Activity of Beta-Lactam 5 with beta-lactamase inhibitor: Beta-Lactam 5 + BLI at 2 μg/mL; for MIC of ceftazidime with beta-lactamase inhibitor: Ceft + BLI at 2 μg/mL; for MIC of meropenem with beta-lactamase inhibitor: Mero + BLI at 2 μg/mL
Description: as §1, with “MIC.” for “MIC. Performance of the assay was monitored by testing aztreonam against laboratory quality control strains in accordance with guidelines of the CLSI.”
(§2) Synergy or potentiation of beta-lactam antibiotics through inhibition of Q-lactamases was assessed against an isogenic panel of E. coli strains, each expressing a unique beta-lactamase, and against clinical strains.
(§3) Strain NB27273 (BW25113 pspB::Km^r) was obtained from the Keio transposon insertion collection. The strain has the pspB gene replaced by a kanamycin resistance marker (BW25113 pspB::Km^r). This strain was cured of the transposon in pspB via FLP recombinase using published methodology. The resulting strain, BW25113 pspB, was used as a host for multicopy vectors expressing key beta-lactamases. Multicopy plasmids directing constitutive expression of beta-lactamases were established as follows: Synthetic, codon optimized genes encoding E. coli KPC-2, SHV-12 and CTX-M-15 beta-lactamases were made by DNA2.0 (Palo Alto, Calif.). Each of the synthetic fragments were designed to contain NotI and NcoI restriction sites at their termini, allowing ligation into a NotI/NcoI digested pET28a(+) derivative for protein expression. […] The codon optimized nucleotide sequences and relevant primer recognition information is shown below:
(§4) The PCR products were then digested with XhoI and EcoRI and ligated into similarly digested plasmid pAH63-pstS(BlaP). […] Therefore, expression of beta-lactamases from pAH63-pstS(BlaP) based constructs is constitutive and the signal sequence is provided to direct these proteins to the periplasm. […] These fragments were then digested with XbaI and EcoRI, and each was inserted into pBAD18-kan that had been digested with the same enzymes to generate multicopy vectors expressing KPC-2, SHV-12 and CTX-M-15, respectively. These vectors were transformed into BW25113 pspB to generate strains NB27273-CDY0033 (expressing KPC-2), NB27273-CDY0030 (expressing SHV-12), NB27273-CDY0034 (expressing CTX-M-15) and NB27273-CDY0036 (expressing AmpC). The pBAD18-kan vector also contains the TEM promoter region and signal sequence, (but lacks any intact beta-lactamase genes) and was transformed into BW25113 pspB using standard protocols to generate the control strain NB27273-CDY0026.

[5] = tested on: E. coli (CTX-M-15); assay: microbe, parasite or virus in culture; details: for MIC of aztreonam with beta-lactamase inhibitor: AZ + BLI at 2 μg/mL; for Activity of Beta-Lactam 5 with beta-lactamase inhibitor: Beta-Lactam 5 + BLI at 2 μg/mL; for MIC of ceftazidime with beta-lactamase inhibitor: Ceft + BLI at 2 μg/mL; for MIC of meropenem with beta-lactamase inhibitor: Mero + BLI at 2 μg/mL
Description: as §1, with “MIC.” for “MIC. Performance of the assay was monitored by testing aztreonam against laboratory quality control strains in accordance with guidelines of the CLSI.”
as §2, §3, §4

[6] = tested on: E. coli (KPC-2); assay: microbe, parasite or virus in culture; details: E. coli (KPC-2); for MIC of aztreonam with beta-lactamase inhibitor: AZ + BLI at 2 μg/mL; for Activity of Beta-Lactam 5 with beta-lactamase inhibitor: Beta-Lactam 5 + BLI at 2 μg/mL; for MIC of ceftazidime with beta-lactamase inhibitor: Ceft + BLI at 2 μg/mL; for MIC of meropenem with beta-lactamase inhibitor: Mero + BLI at 2 μg/mL
Description: as §1, with “MIC.” for “MIC. Performance of the assay was monitored by testing aztreonam against laboratory quality control strains in accordance with guidelines of the CLSI.”
as §2, §3, §4

[7] = tested on: E. coli ATCC 25922, K. pneumoniae ATCC 43816, P. aeruginosa ATCC 27853; assay: Direct antibacterial activity of BLIs alone, summary of Table A; details: BLI alone, in words
Description: as §1, with “A volume of 10 μL of the drug dilution series was transferred to 96-well assay plates. Assay plates were inoculated with 90 μL of bacterial suspensions and incubated at 35° C. for 20 hrs.” left out

[8] = tested on: Enterobacter cloacae NB25044 (CTX-M-12, ACT, KPC-2); details: AZ + BLI at 2 μg/mL
Description: as §1, with “MIC.” for “MIC. Performance of the assay was monitored by testing aztreonam against laboratory quality control strains in accordance with guidelines of the CLSI.”
as §2

[9] = tested on: K. pneumoniae NB29082 (KPC-2); assay: Potentiation of piperacillin in beta-lactam resistant clinical isolate; details: Pip + BLI at 2 μg/mL
Description: as §1, §2

[10] = tested on: S. aureus NB01437 (BLA+); assay: as above; details: Pip + BLI at 2 μg/mL
Description: as §1, §2

[11] = tested on: Enterobacter cloacae NB25055 (CMY-2); assay: as above; details: Pip + BLI at 2 μg/mL
Description: as §1, §2

Row | SMILES | MIC [1] [µg/mL] | MIC [2] [µg/mL] | MIC [3] [µg/mL] | MIC of aztreonam with beta-lactamase inhibitor [4] [µg/mL] | Activity of Beta-Lactam 5 with beta-lactamase inhibitor [4] [µg/mL] | MIC of ceftazidime with beta-lactamase inhibitor [4] [µg/mL] | MIC of meropenem with beta-lactamase inhibitor [4] [µg/mL] | MIC of aztreonam with beta-lactamase inhibitor [5] [µg/mL] | Activity of Beta-Lactam 5 with beta-lactamase inhibitor [5] [µg/mL] | MIC of ceftazidime with beta-lactamase inhibitor [5] [µg/mL] | MIC of meropenem with beta-lactamase inhibitor [5] [µg/mL] | MIC of aztreonam with beta-lactamase inhibitor [6] [µg/mL] | Activity of Beta-Lactam 5 with beta-lactamase inhibitor [6] [µg/mL] | MIC of ceftazidime with beta-lactamase inhibitor [6] [µg/mL] | MIC of meropenem with beta-lactamase inhibitor [6] [µg/mL] | direct antibacterial activity [7] | Activity of aztreonam with beta-lactamase inhibitor [8] [µg/mL] | Activity of piperacillin with beta-lactamase inhibitor [9] [µg/mL] | Activity of piperacillin with beta-lactamase inhibitor [10] [µg/mL] | Activity of piperacillin with beta-lactamase inhibitor [11] [µg/mL]
1 | NC(=O)[C@@H]1CC[C@@H]2CN1C(=O)N2OS(=O)(=O)O [Avibactam] | > 64 | 16 (≈ 60.3 µM) | 32 (≈ 121 µM) | 1 | 0.125 | 0.5 | ≤0.06 | 0.125 | 0.25 | 0.25 | ≤0.06 | 0.125 | 0.125 | 0.25 | ≤0.06 | exhibit direct antibacterial activity | 8 |  |  | 
2 | O=C1NC[C@@H]2C[C@@H]3CN(C(=O)N3OS(=O)(=O)[O-])[C@H]12.[Na+] [Example 1, Sodium (4R,5aS,8aS)-2,8-dioxohexahydro-2H-1,4-methanopyrrolo[3,4-d][1,3]diazepin-3(4H)-yl sulfate] | > 64 | > 64 | > 64 | 0.25 | 0.25 | 0.25 | ≤0.06 | ≤0.06 | 0.25 | 0.25 | ≤0.06 | 0.125 | 0.25 | 0.125 | ≤0.06 | does not exhibit much direct antibiotic activity | 4 | 8 | 1 | 4
3 | O=C(NC1CCNCC1)[C@@H]1CC[C@@H]2CN1C(=O)N2OS(=O)(=O)O [Relebactam] | > 64 | > 64 | > 64 | 32 | 0.125 | 8 | ≤0.06 | 0.5 | 0.25 | 0.5 | ≤0.06 | 1 | 0.125 | 0.25 | ≤0.06 |  | >64 |  |  | 
